Measurements from patent US20020137929A1, “1 - (3-heterocyclylphenyl) isothiourea, -isourea, -guanidine and -amidine herbicidal agents” (Intellectual Property Department, BASF Aktiengesellschaft, priority 1998, published 2002).

Key:
[1] = tested on: ABUTH (Velvetleaf); assay: Preemergence herbicidal evaluation; format: in vivo, Abutilon theophrasti; details: rated 4-5 weeks after treatment; for ABUTH rating: preemergence, 0-9 scale
How it was run: (§1)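 Sown cups got a single aqueous acetone spray of test compound (roughly 0.0156–0.500 kg/ha) before seedlings emerged. Evaluation, 4–5 weeks on, used a 0–9 visual scale covering plant stand, vigor, size, malformation, chlorosis and general appearance compared with controls.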

[2] = tested on: GLXMAW (Soybean, Williams); assay: Preemergence herbicidal evaluation; format: in vivo, Glycine max, (L.) Merr. cv Williams; details: rated 4-5 weeks after treatment; for GLXMAW rating: preemergence, 0-9 scale
How it was run: as §1

[3] = tested on: ZEAMX (Corn, Field); assay: Postemergence herbicidal evaluation; format: in vivo, Zea mays; details: for ZEAMX herbicidal rating: postemergence
How it was run: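 First, seedlings were raised for around two weeks. Next, test material in 50/50 acetone/water containing 0.5% TWEEN 20 was sprayed through a nozzle at 40 psi, equivalent to about 0.0156–0.500 kg/ha. Finally, after 4–5 weeks in the greenhouse, plants were rated 0–9.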

[4] = tested on: SAGPY (Arrowhead (Pygmaea)); assay: Postemergence weed control under flooded paddy conditions; format: in vivo, Sagittaria pygmaea; details: postemergence weeds
How it was run: (§2)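 Herbicidal effect is judged by eye on a 0–9 scale versus control, 3–4 weeks after dosing. Dosing is into flood water kept 1.5–3 cm over the soil, at about 0.0313–0.500 kg/ha in aqueous/acetone 50/50 v/v, on 3–5 cm weeds and 1.5–2.5-leaf rice seedlings.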

[5] = tested on: AMBEL (Ragweed, Common); assay: Preemergence herbicidal evaluation; format: in vivo, Ambrosia artemisifolia; details: rated 4-5 weeks after treatment; for AMBEL rating: preemergence, 0-9 scale
How it was run: as §1

[6] = tested on: MOOVA (Monochoria); assay: Postemergence weed control under flooded paddy conditions; format: in vivo, Monochoria vaginalis; details: postemergence weeds
How it was run: as §2

[7] = rate 0.0313 kg/ha, 3-4 weeks after treatment
[8] = rate 0.0625 kg/ha, 3-4 weeks after treatment
[9] = rate 0.1250 kg/ha, 3-4 weeks after treatment
[10] = rate 0.2500 kg/ha, 3-4 weeks after treatment
[11] = Rate 0.0313 kg/ha, rated 3 to 4 weeks after treatment
[12] = Rate 0.0625 kg/ha, rated 3 to 4 weeks after treatment
[13] = Rate 0.1250 kg/ha, rated 3 to 4 weeks after treatment
[14] = Rate 0.2500 kg/ha, rated 3 to 4 weeks after treatment

Cn1c(C(F)(F)F)cc(=O)n(-c2cc(N=C3SCC(=O)N3[C@@H](Cc3ccccc3)C(=O)O)c(Cl)cc2F)c1=O [Compound 53, α-Benzyl-2-{{2-chloro-5-[3,6-dihydro-3-methyl-2,6-dioxo-4-(trifluoromethyl)-1(2H)-pyrimidinyl]-4-fluorophenyl}imino}-4-oxo-3-thiazolidineacetic acid, L-]
Preemergence herbicidal rating ABUTH ([1]; rate 0.0313 kg/ha): 7.0
Preemergence herbicidal rating ABUTH ([1]; rate 0.0625 kg/ha): 9.0
Preemergence herbicidal rating ABUTH ([1]; rate 0.1250 kg/ha): 9.0
Preemergence herbicidal rating ABUTH ([1]; rate 0.2500 kg/ha): 9.0
Preemergence herbicidal rating GLXMAW ([2]; rate 0.0313 kg/ha): 0.0
Preemergence herbicidal rating GLXMAW ([2]; rate 0.0625 kg/ha): 0.0
Preemergence herbicidal rating GLXMAW ([2]; rate 0.1250 kg/ha): 2.0
Preemergence herbicidal rating GLXMAW ([2]; rate 0.2500 kg/ha): 4.0
Postemergence herbicidal rating ZEAMX ([3]; Rate 0.0158 kg/ha): 5.5
Postemergence herbicidal rating ZEAMX ([3]; Rate 0.0315 kg/ha): 7.5
Postemergence herbicidal rating ZEAMX ([3]; Rate 0.0630 kg/ha): 8.0
Herbicidal rating SAGPY [4, 7]: 0.0
Herbicidal rating SAGPY [4, 8]: 0.0
Herbicidal rating SAGPY [4, 9]: 0.0
Herbicidal rating SAGPY [4, 10]: 0.0
Preemergence herbicidal rating AMBEL ([5]; rate 0.0313 kg/ha): 0.0
Preemergence herbicidal rating AMBEL ([5]; rate 0.0625 kg/ha): 9.0
Preemergence herbicidal rating AMBEL ([5]; rate 0.1250 kg/ha): 9.0
Preemergence herbicidal rating AMBEL ([5]; rate 0.2500 kg/ha): 9.0
Herbicidal rating MOOVA [6, 7]: 2.0
Herbicidal rating MOOVA [6, 8]: 2.0
Herbicidal rating MOOVA [6, 9]: 9.0
Herbicidal rating MOOVA [6, 10]: 9.0

COC(=O)CC1SC(=Nc2cc(-n3c(=O)cc(C(F)(F)F)n(C)c3=O)c(F)cc2Cl)N(C)C1=O (stereo not shown) [Compound 88, Methyl 2-{{2-chloro-5-[3,6-dihydro-3-methyl-2,6-dioxo-4-(trifluoromethyl)-1(2H)-pyrimidinyl]-4-fluorophenyl}imino}-3-methyl-4-oxo-5-thiazolidineacetate]
ABUTH rating ([1]; 0.0156 kg/ha): 9.0
ABUTH rating ([1]; 0.0313 kg/ha): 9.0
ABUTH rating ([1]; 0.0625 kg/ha): 9.0
ABUTH rating ([1]; 0.1250 kg/ha): 9.0
ABUTH rating ([1]; 0.2500 kg/ha): 9.0
GLXMAW rating ([2]; 0.0156 kg/ha): 0.0
GLXMAW rating ([2]; 0.0313 kg/ha): 0.0
GLXMAW rating ([2]; 0.0625 kg/ha): 0.0
GLXMAW rating ([2]; 0.1250 kg/ha): 4.0
GLXMAW rating ([2]; 0.2500 kg/ha): 9.0
ZEAMX herbicidal rating ([3]; rate 0.0158 kg/ha): 7.5
ZEAMX herbicidal rating ([3]; rate 0.0315 kg/ha): 8.5
ZEAMX herbicidal rating ([3]; rate 0.0630 kg/ha): 9.0
Herbicidal rating SAGPY [4, 11]: 6.0
Herbicidal rating SAGPY [4, 12]: 9.0
Herbicidal rating SAGPY [4, 13]: 9.0
Herbicidal rating SAGPY [4, 14]: 9.0
AMBEL rating ([5]; 0.0156 kg/ha): 0.0
AMBEL rating ([5]; 0.0313 kg/ha): 0.0
AMBEL rating ([5]; 0.0625 kg/ha): 7.0
AMBEL rating ([5]; 0.1250 kg/ha): 9.0
AMBEL rating ([5]; 0.2500 kg/ha): 9.0
Herbicidal rating MOOVA [6, 11]: 9.0
Herbicidal rating MOOVA [6, 12]: 9.0
Herbicidal rating MOOVA [6, 13]: 9.0
Herbicidal rating MOOVA [6, 14]: 9.0
